Laboratory results reported in ChEMBL document CHEMBL1150566, “Pitipeptolides A and B, new cyclodepsipeptides from the marine cyanobacterium Lyngbya majuscula” (J Nat Prod, 2001).
Converted amounts (≈) assume the structure as drawn. The source made the active and inactive calls. The calls are words filed in the database; no cut-off is given here. Numbered stars: 1 amine (or outer) side, 2 acyl side, 3 side chain; on linkers, the order of the positions; unused ones are H or OH. Bridge positions count the residues as written; N and C are the ends. Square brackets hold non-standard residues; d marks the D form. Peptide text beside a SMILES is read from it. X1 = C=CCCC[C@H](O[*:2])C(C)(C)C(=O)[*:1]; X2 = C#CCCC[C@H](O[*:2])C(C)(C)C(=O)[*:1]; Hmpa(2S,3S) = CC[C@H](C)[C@H](O)C(=O)O; NMeF = CN[C@@H](Cc1ccccc1)C(=O)O

Legend:
[1] = test system: Mycobacterium tuberculosis; experiment: Antimycobacterial activity against Mycobacterium tuberculosis ATCC 25177 at 25 ug/disk by disk diffusion susceptibility assay; assay type: functional; settings: read-out: DIZ
[2] = test system: Mycobacterium tuberculosis; experiment: Antimycobacterial activity against Mycobacterium tuberculosis ATCC 25177 at 5 ug/disk by disk diffusion susceptibility assay; assay type: functional; settings: read-out: DIZ
[3] = test system: Mycobacterium tuberculosis; experiment: Antimycobacterial activity against Mycobacterium tuberculosis ATCC 25177 at 1 ug/disk by disk diffusion susceptibility assay; assay type: functional; settings: read-out: DIZ
[4] = test system: Mycobacterium tuberculosis; experiment: Antimycobacterial activity against Mycobacterium tuberculosis ATCC 35818 at 25 ug/disk by disk diffusion susceptibility assay; assay type: functional; settings: read-out: DIZ
[5] = test system: Mycobacterium tuberculosis; experiment: Antimycobacterial activity against Mycobacterium tuberculosis ATCC 35818 at 5 ug/disk by disk diffusion susceptibility assay; assay type: functional; settings: read-out: DIZ
[6] = test system: Mycobacterium tuberculosis; experiment: Antimycobacterial activity against Mycobacterium tuberculosis ATCC 35818 at 1 ug/disk by disk diffusion susceptibility assay; assay type: functional; settings: read-out: DIZ
LoVo = experiment: Cytotoxicity against human LoVo cells; assay type: functional, cell-based
[7] = test system: Mycobacterium tuberculosis; experiment: Antimycobacterial activity against Mycobacterium tuberculosis ATCC 25177 at 100 ug/disk by disk diffusion susceptibility assay; assay type: functional; settings: read-out: DIZ
[8] = Inhibition of elastase
Papain (Carica papaya) = target: T1, Papain (Carica papaya) (UniProt P00784); experiment: Inhibition of papaya papain
T1 sequence (whole entry): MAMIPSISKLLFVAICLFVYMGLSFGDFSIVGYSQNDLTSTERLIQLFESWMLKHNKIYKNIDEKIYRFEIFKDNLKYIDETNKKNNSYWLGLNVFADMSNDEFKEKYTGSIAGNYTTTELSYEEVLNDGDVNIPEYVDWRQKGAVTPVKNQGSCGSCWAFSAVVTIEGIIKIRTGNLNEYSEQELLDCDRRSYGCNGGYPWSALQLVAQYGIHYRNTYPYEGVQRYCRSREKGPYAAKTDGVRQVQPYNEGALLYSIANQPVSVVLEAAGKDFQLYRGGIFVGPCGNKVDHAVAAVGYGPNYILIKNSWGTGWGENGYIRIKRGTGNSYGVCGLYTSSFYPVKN

[9] = target: Prothrombin (Homo sapiens) (UniProt P00734); experiment: Inhibition of thrombin
[10] = Inhibition of trypsin
[11] = target: Plasminogen (Homo sapiens) (UniProt P00747); experiment: Inhibition of plasmin
[12] = Inhibition of chymotrypsin
[13] = Stimulation of elastase activity at 50 ug/ml relative to control
[14] = test system: Mycobacterium tuberculosis; experiment: Antimycobacterial activity against Mycobacterium tuberculosis ATCC 35818 at 100 ug/disk by disk diffusion susceptibility assay; assay type: functional; settings: read-out: DIZ

Plasminogen (Homo sapiens), sequence (P00747 97-580 limits assumed): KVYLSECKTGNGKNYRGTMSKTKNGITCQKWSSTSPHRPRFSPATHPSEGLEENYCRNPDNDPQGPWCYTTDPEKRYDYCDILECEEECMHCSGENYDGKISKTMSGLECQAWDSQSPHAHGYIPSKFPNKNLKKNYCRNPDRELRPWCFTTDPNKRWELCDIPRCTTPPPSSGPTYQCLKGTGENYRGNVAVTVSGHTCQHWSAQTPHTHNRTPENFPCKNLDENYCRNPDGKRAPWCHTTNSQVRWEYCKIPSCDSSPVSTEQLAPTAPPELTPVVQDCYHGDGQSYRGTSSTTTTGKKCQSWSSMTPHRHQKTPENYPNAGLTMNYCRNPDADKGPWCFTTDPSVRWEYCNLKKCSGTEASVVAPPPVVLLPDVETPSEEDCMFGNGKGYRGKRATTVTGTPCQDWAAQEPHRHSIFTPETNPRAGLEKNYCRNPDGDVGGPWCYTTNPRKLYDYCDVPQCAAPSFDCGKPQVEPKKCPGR
Plasminogen (Homo sapiens), sequence (P00747 581-810 limits assumed): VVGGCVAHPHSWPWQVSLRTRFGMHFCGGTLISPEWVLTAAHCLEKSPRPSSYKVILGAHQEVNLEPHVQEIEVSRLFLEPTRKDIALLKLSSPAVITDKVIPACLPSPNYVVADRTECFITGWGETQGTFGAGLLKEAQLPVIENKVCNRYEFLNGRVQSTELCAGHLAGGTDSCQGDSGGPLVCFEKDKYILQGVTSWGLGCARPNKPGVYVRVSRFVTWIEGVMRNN

For `CN[C@@H]1[C@H](O[C@H]2[C@H](O[C@H]3[C@H](O)[C@@H](O)[C@H](N=C(N)N)[C@@H](O)[C@@H]3N=C(N)N)O[C@@H](C)[C@]2(O)C=O)O[C@@H](CO)[C@H](O)[C@H]1O` [STREPTOMYCIN], the zone of inhibition at 25 µg/disc [1] was 50 mm, the zone of inhibition at 5 µg/disc [2] was 15 mm and the zone of inhibition at 1 µg/disc [3] was 0 mm. For the same compound, the zone of inhibition at 25 µg/disc [4] was 55 mm, the zone of inhibition at 5 µg/disc [5] was 33 mm and the zone of inhibition at 1 µg/disc [6] was 10 mm.
For `C=CCCC[C@@H]1OC(=O)CNC(=O)[C@H]([C@@H](C)CC)NC(=O)[C@@H]2CCCN2C(=O)[C@H]([C@@H](C)CC)OC(=O)[C@H](Cc2ccccc2)N(C)C(=O)[C@H](C(C)C)NC(=O)C1(C)C` [PITIPEPTOLIDE B] (V[NMeF][Hmpa(2S,3S)]PIG; linker N-C via X1), the IC50 (LoVo) was 1.95 µg/mL (≈ 2.41 µM), the zone of inhibition at 25 µg/disc [1] was 15 mm and the zone of inhibition at 100 µg/disc [7] was 30 mm. The Activity [8] was “inactive”, the Activity (Papain (Carica papaya)) was “inactive” and the Activity [9] was “inactive”. The Activity [10] was “inactive”, the Activity [11] was “inactive” and the Activity [12] was “inactive”. For the same compound, the fold change (FC) [13] was 2.55, the zone of inhibition at 25 µg/disc [4] was 10 mm and the zone of inhibition at 100 µg/disc [14] was 15 mm.
`C#CCCC[C@@H]1OC(=O)CNC(=O)[C@H]([C@@H](C)CC)NC(=O)[C@@H]2CCCN2C(=O)[C@H]([C@@H](C)CC)OC(=O)[C@H](Cc2ccccc2)N(C)C(=O)[C@H](C(C)C)NC(=O)C1(C)C` [PITIPEPTOLIDE A] (V[NMeF][Hmpa(2S,3S)]PIG; linker N-C via X2) gave an IC50 (LoVo) of 2.25 µg/mL (≈ 2.78 µM), a zone of inhibition at 25 µg/disc [1] of 10 mm and a zone of inhibition at 100 µg/disc [7] of 25 mm. The Activity [8] was “inactive”, the Activity (Papain (Carica papaya)) was “inactive” and the Activity [9] was “inactive”. For the same compound, the Activity [10] was “inactive”, the Activity [11] was “inactive” and the Activity [12] was “inactive”. For the same compound, the fold change (FC) [13] was 2.76, the zone of inhibition at 25 µg/disc [4] was 9 mm and the zone of inhibition at 100 µg/disc [14] was 15 mm.
